Laboratory results reported in patent US9061004B2, “15-PGDH in colon cancer” (Case Western Reserve University, priority 2009, dated 2015).

Tests used:
[1] = test system: 15-PGDH mRNA; settings: cited from earlier work
[2] = Celecoxib tissue levels in colonic mucosa by LC/MS/MS; type: in vivo, mouse; settings: 2 weeks celecoxib supplemented diet, mean ± SEM
Description: Mouse studies were conducted in the Case Animal Resource Center under a protocol approved by the Institutional Animal Care and Use Committee. 15-Hydroxyprostaglandin dehydrogenase (15-PGDH) knockout mice on a C57BL/6J background were generated as described previously (Myung, S. J. et al., (2006) Proc Natl Acad Sci USA 103, 12098-102; Coggins, K. G. et al, (2002) Nat Med 8, 91-2) and were bred to generation F8 onto an FVB/N (Jackson Laboratory, Bar Harbor, Me.) background, with genotyping done as previously described (Myung, S. J. et al., (2006) Proc Natl Acad Sci U S A 103, 12098-102). 15-PGDH +/− mice generation F8 were intercrossed and siblings of 15-PGDH +/+ and −/− genotypes were selected out for studies with AOM and celecoxib. Eight- to 12-week-old mice were administered AOM by i.p. injection once weekly for 6 weeks at 10mg/kg dose (Sigma Chemical Co., St. Louis, Mo.). Mice were euthanized 24 weeks after the last AOM injection. […]
Following 2 weeks of control or celecoxib supplemented diet mice were euthanized. […] The celecoxib level in the samples was determined by LC/MS/MS. […] Celecoxib was detected and quantified by operating the mass spectrometer in electrospray negative ion mode and monitoring the transition m/z 380.2>316.1. Quantification was done by comparing the sample peak areas to a standard curve and concentration of celecoxib was normalized by protein concentration.

[3] = test system: AOM induced colon tumors; assay: AOM induced colon tumor development in FVB mice on dietary celecoxib; type: in vivo, mouse; settings: for AOM induced colon tumors per mouse / AOM induced large colon tumors (>1 mm) per mouse: mean ± SEM
Description: To conduct this study FVB mice were selected, chosen because at baseline this mouse strain is sensitive to AOM induced colon tumors (Nambiar, P. R. et al., (2003) Int J Oncol 22, 145-50). In 15-PGDH wild-type FVB mice, AOM induced 2.3±0.4 tumors per mouse colon (FIG. 1A, 1C), which on histology review were all adenomatous lesions. As in human trials, administering dietary celecoxib protected wild-type FVB mice against colon tumor development, reducing adenoma development to 0.7±0.3 tumors per mouse (P=0.003) (FIG. 1A, 1C). Furthermore, while nearly all tumors arising in control mice exceeded 1 mm in size, tumors in celecoxib treated mice rarely reached this size (2.2±0.4 versus 0.3±0.1, P<0.0001) (FIG. 1B).
Dietary celecoxib could thus near completely protect wild-type FVB mice from developing colon tumors. […] Thus, celecoxib treated 15-PGDH null mice developed 5.5-fold more colon adenomas than did their celecoxib treated 15-PGDH wild-type littermates (3.9±0.8 versus 0.7±0.3, P=0.0001) (FIG. 1A, 1C). Moreover, all colonic adenomas arising in celecoxib treated knockout mice were large, each exceeding 1 mm in size; whereas, large tumors were nearly completely absent in celecoxib treated 15-PGDH wild-type mice (3.9±0.8 large tumors per knockout mouse versus 0.3±0.1 per wild-type, P=0.0001) (FIG. 1B, 1C). By several measures, 15-PGDH knockout mice were almost completely resistant to the colon tumor prevention effects of celecoxib. […] Moreover, colon tumor development in celecoxib treated 15-PGDH knockout mice actually exceeded that of drug untreated wild-type mice (3.9±0.8 versus 2.2±0.4 respectively, for tumors >1 mm in size, P=0.04; and, 3.9±0.8 versus 2.3±0.4 respectively tumors of any size, P=0.06) (FIG. 1A, 1B). We conclude that celecoxib mediated colon tumor prevention requires concurrent presence of the prostaglandin inactivating activity of colonic 15-PGDH, and that 15-PGDH loss confers in vivo resistance to this drug effect.
Mouse studies were conducted in the Case Animal Resource Center under a protocol approved by the Institutional Animal Care and Use Committee. 15-Hydroxyprostaglandin dehydrogenase (15-PGDH) knockout mice on a C57BL/6J background were generated as described previously (Myung, S. J. et al., (2006) Proc Natl Acad Sci USA 103, 12098-102; Coggins, K. G. et al, (2002) Nat Med 8, 91-2) and were bred to generation F8 onto an FVB/N (Jackson Laboratory, Bar Harbor, Me.) background, with genotyping done as previously described (Myung, S. J. et al., (2006) Proc Natl Acad Sci U S A 103, 12098-102). 15-PGDH +/− mice generation F8 were intercrossed and siblings of 15-PGDH +/+ and −/− genotypes were selected out for studies with AOM and celecoxib. Eight- to 12-week-old mice were administered AOM by i.p. injection once weekly for 6 weeks at 10mg/kg dose (Sigma Chemical Co., St. Louis, Mo.). Mice were euthanized 24 weeks after the last AOM injection. After euthanizing, the colons were opened longitudinally, rinsed with ice-cold PBS, and examined under a dissecting microscope to identify all tumors. Tumors were resected, fixed in 10% neutral buffered formalin, and paraffin-embedded for histologic examination. All mice received an AIN-76A diet (Harlan Teklad, Madison, Wis.). The diet of celecoxib treated mice was supplemented with 1250 mg/kg of this agent (LKT laboratories, St. Paul, Minn.) (Williams, C. S. et al., (2000) Cancer Res 60, 6045-51). In AOM studies, celecoxib supplementation was initiated starting the day of first AOM injection and continued throughout the lifetime of the mouse. In studies of colonic prostaglandin levels celecoxib was administered to a cohort of 8-12 week old mice continuously for 2 weeks, at which time mice were euthanized.
Prostaglandin and celecoxib levels were log transformed in order to be approximately normally distributed for analysis with a generalized linear regression model with contrasts, generating two-sided P-values. […]

[4] = test system: PGE2; assay: Colonic mucosal PGE2 levels by LC/MS/MS after 2 weeks of celecoxib diet; type: in vivo, mouse; settings: 2 weeks celecoxib diet, mean ± SEM
Description: To further investigate the mechanism of celecoxib's dependence on 15-PGDH, we determined PGE2 levels in colonic mucosa of FVB mice under different experimental conditions. Consistent with the role of 15-PGDH in mediating prostaglandin degradation, 15-PGDH gene knockout essentially doubled FVB colonic PGE2 levels (9.1±1.5 ng/mg protein in knockouts versus 5.70±0.8 ng/mg protein in controls, P=0.04) (FIG. 1D). […] In contrast, in 15-PGDH knockout mice the biochemical activity of celecoxib was much attenuated, with the drug lowering PGE2 levels to only 4.7±0.8 ng/mg protein. […] In overview, the efficacy of celecoxib in lowering colonic PGE2 levels in these different models closely paralleled the drug's anti-tumor activity (FIG. 1D versus FIG. 1A, 1B), and mice that lacked 15-PGDH equally acquired resistance to celecoxib's biochemical activity of lowering colonic PGE2 and to celecoxib's phenotypic effect of preventing colon tumors. Celecoxib resistance of 15-PGDH null mice was not due to any change in drug absorption or catabolism, as tissue levels of celecoxib were indistinguishable between drug treated 15-PGDH wild-type and null mice (39.5±9.7 versus 37.7±7.6 ng/mg protein, P=0.7) (FIG. 2A). […] Rather, the effective depletion of colonic PGE2 required the COX-2 inhibitor drug to act in concert with the independent prostaglandin degrading activity of 15-PGDH. […]

[5] = test system: colorectal adenomas; assay: Adenoma Prevention with Celecoxib (APC) trial, recurrent adenomas at 36 months; type: in vivo, human; settings: 16 individuals, 36 months of daily celecoxib
Description: To test this hypothesis, we examined frozen biopsies of rectal mucosa obtained from 16 individuals at the time of their enrollment in the Adenoma Prevention with Celecoxib (APC) trial (Bertagnolli, M. M. et al., (2006) N Engl J Med 355, 873-84). These individuals were all at high risk for colon adenoma development based on having had multiple colon adenomas and/or adenomas greater than 5 mm in diameter prior to their enrollment. Following clearing of their colonic adenomas by colonoscopy, each individual received 36-months of daily treatment with celecoxib (Bertagnolli, M. M. et al., (2006) N Engl J Med 355, 873-84). […] In total 9 new adenomas were detected in these patients (FIG. 3). 15-PGDH levels among individuals who developed new adenomas were lower than 15-PGDH levels among individuals who remained adenoma free (P=0.04) (FIG. 3). […] The relationship of low 15-PGDH level to celecoxib resistance becomes even stronger if analyzed in terms of the numbers of new adenomas that individuals developed, with 8 of the 9 adenomatous polyps that recurred during celecoxib treatment arising in individuals with colonic 15-PGDH values below the cohort median (P=0.01), and with all 9 new adenomas arising in individuals with colonic 15-PGDH below the cohort mean (P=0.001) (FIG. 3). […]

Row | Tissue level of celecoxib in colonic mucosa ([2]; 15-PGDH null mice) [ng/mg protein] | Tissue level of celecoxib in colonic mucosa ([2]; 15-PGDH wild-type mice) [ng/mg protein] | SMILES | Effect on 15-PGDH mRNA levels [1] | AOM induced colon tumors per mouse ([3]; 15-PGDH knockout (null) FVB mice, dietary celecoxib) | AOM induced large colon tumors (>1 mm) per mouse ([3]; 15-PGDH knockout FVB mice, dietary celecoxib) | AOM induced colon tumors per mouse ([3]; 15-PGDH wild-type FVB mice, dietary celecoxib 1250 mg/kg diet) [tumors per mouse] | AOM induced large colon tumors (>1 mm) per mouse ([3]; 15-PGDH wild-type FVB mice, dietary celecoxib) | Prevention of AOM induced tumors >1 mm in size ([3]; FVB mice (15-PGDH wild-type)) [%] | Colon adenomas in celecoxib treated 15-PGDH null mice relative to celecoxib treated wild-type littermates ([3]; null versus wild-type, both celecoxib treated) [fold] | Colonic mucosal PGE2 level ([4]; 15-PGDH knockout FVB mice) [ng/mg protein] | Colonic mucosal PGE2 level ([4]; 15-PGDH wild-type FVB mice) [ng/mg protein] | Total new adenomas detected [5]
1 | – | – | C#Cc1cccc(Nc2ncnc3cc(OCCOC)c(OCCOC)cc23)c1 [erlotinib] | induce 15-PGDH mRNA levels | – | – | – | – | – | – | – | – | –
2 | 37.7±7.6 | 39.5±9.7 | Cc1ccc(-c2cc(C(F)(F)F)nn2-c2ccc(S(N)(=O)=O)cc2)cc1 [celecoxib] | – | 3.9±0.8 | 3.9±0.8 large tumors per knockout mouse | 0.7±0.3 | 0.3±0.1 | 85 | 5.5 | 4.7±0.8 | 1.6±0.4 | 9
